These results are taken from PubChem BioAssay AID270 (DTP/NCI, 2004).

“And” between values parts separate entries of the source, which are not always exact repeats. Equal values may be shown once. Results filed as inconclusive are left out.

The assay concerns BDF1 mice, s.c. Lewis lung carcinoma, T/C %. Put plainly: NCI In Vivo Anticancer Drug Screen. Data for tumor model Lewis Lung Carcinoma (subcutaneous) in B6D2F1 (BDF1) mice. Summed up: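 Readout: survival or tumor size, expressed as treated (T) over vehicle control (C). Transplantable tumor implanted in mice; compound given to the treated group.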
The mark [1] stands for this setting: endpoint: median survival time, dose: 1.25 mg/kg/injection, schedule: Q01DX009 (ip), vehicle: Klucel (hydroxypropylcellulose) (HPC), higher = longer survival.
Where [2] appears, read: endpoint: median survival time, dose: 2.5 mg/kg/injection, schedule: Q01DX009 (ip), vehicle: Klucel (hydroxypropylcellulose) (HPC), higher = longer survival.
Setting [3] is: endpoint: median survival time, dose: 5.0 mg/kg/injection, schedule: Q01DX009 (ip), vehicle: Klucel (hydroxypropylcellulose) (HPC), higher = longer survival.

Regarding `COc1ccc(NC(=O)N(CCCl)N=O)cc1OC`, the T/C was 97 % of control (endpoint: median survival time, dose: 1.56 mg/kg/injection, schedule: Q01DX009 (ip), vehicle: Klucel (hydroxypropylcellulose) (HPC), higher = longer survival); 100 % of control (endpoint: median survival time, dose: 3.12 mg/kg/injection, schedule: Q01DX009 (ip), vehicle: Klucel (hydroxypropylcellulose) (HPC), higher = longer survival); 106 % of control (endpoint: median survival time, dose: 6.25 mg/kg/injection, schedule: Q01DX009 (ip), vehicle: Klucel (hydroxypropylcellulose) (HPC), higher = longer survival); 101 % of control (endpoint: median survival time, dose: 12.5 mg/kg/injection, schedule: Q01DX009 (ip), vehicle: Klucel (hydroxypropylcellulose) (HPC), higher = longer survival); 107 % of control (endpoint: median survival time, dose: 25.0 mg/kg/injection, schedule: Q01DX009 (ip), vehicle: Klucel (hydroxypropylcellulose) (HPC), higher = longer survival).

With `Nc1ccc2ccccc2c1N=Nc1ccccc1`, the T/C (endpoint: mean tumor weight, dose: 500.0 mg/kg/injection, schedule: Q01DX011 (ip), vehicle: other, higher = larger tumour) is 105 % of control; the T/C (endpoint: median survival time, dose: 50.0 mg/kg/injection, schedule: Q01DX009 (ip), vehicle: Klucel (hydroxypropylcellulose) (HPC), higher = longer survival) is 104 % of control; the T/C (endpoint: median survival time, dose: 100.0 mg/kg/injection, schedule: Q01DX009 (ip), vehicle: Klucel (hydroxypropylcellulose) (HPC), higher = longer survival) was 104 % of control; the T/C (endpoint: median survival time, dose: 200.0 mg/kg/injection, schedule: Q01DX009 (ip), vehicle: Klucel (hydroxypropylcellulose) (HPC), higher = longer survival) is 98 % of control; the T/C (endpoint: median survival time, dose: 400.0 mg/kg/injection, schedule: Q01DX009 (ip), vehicle: Klucel (hydroxypropylcellulose) (HPC), higher = longer survival) was 95 % of control.

For the compound `Cn1cnc2c1c(=O)[nH]c(=O)n2C`, the T/C (endpoint: mean tumor weight, dose: 50.0 mg/kg/injection, schedule: Q01DX011 (ip), vehicle: saline, higher = larger tumour) was 74 % of control; the T/C (endpoint: mean tumor weight, dose: 100.0 mg/kg/injection, schedule: Q01DX011 (ip), vehicle: saline, higher = larger tumour) is 72 % of control; the T/C (endpoint: mean tumor weight, dose: 200.0 mg/kg/injection, schedule: Q01DX011 (ip), vehicle: saline, higher = larger tumour) was 85 % of control; the T/C (endpoint: mean tumor weight, dose: 400.0 mg/kg/injection, schedule: Q01DX011 (ip), vehicle: saline, higher = larger tumour) was 84 % of control.

In the case of `COc1ccc(C[C@H](N)C(=O)NC2C(CO)OC(n3cnc4c(N(C)C)ncnc43)C2O)cc1` (some centres undefined), the T/C was 97 % of control (endpoint: median survival time, dose: 2.0 mg/kg/injection, schedule: Q01DX009 (ip), vehicle: saline, higher = longer survival); 96 % of control and 101 % of control (endpoint: median survival time, dose: 4.0 mg/kg/injection, schedule: Q01DX009 (ip), vehicle: saline, higher = longer survival); 102 % of control (endpoint: median survival time, dose: 8.0 mg/kg/injection, schedule: Q01DX009 (ip), vehicle: saline, higher = longer survival); 99 % of control (endpoint: median survival time, dose: 16.0 mg/kg/injection, schedule: Q01DX009 (ip), vehicle: saline, higher = longer survival); 90 % of control and 110 % of control (endpoint: median survival time, dose: 32.0 mg/kg/injection, schedule: Q01DX009 (ip), vehicle: saline, higher = longer survival); 97 % of control and 102 % of control (endpoint: median survival time, dose: 64.0 mg/kg/injection, schedule: Q01DX009 (ip), vehicle: saline, higher = longer survival). For the same compound, the T/C (endpoint: median survival time, dose: 128.0 mg/kg/injection, schedule: Q01DX009 (ip), vehicle: saline, higher = longer survival) was 102 % of control.

As to `O=NN(CCCl)C(=O)Nc1ccc(Cl)c(Cl)c1`, the T/C runs as follows: (endpoint: median survival time, dose: 8.0 mg/kg/injection, schedule: Q01DX009 (ip), vehicle: saline with Tween-80, higher = longer survival) 116 % of control; (endpoint: median survival time, dose: 16.0 mg/kg/injection, schedule: Q01DX009 (ip), vehicle: saline with Tween-80, higher = longer survival) 106 % of control.

Consider `O=NN(CCCl)C(=O)Nc1ccc(Br)cc1`, for which the T/C was 97 % of control under setting [1]; 101 % of control under setting [2]; 88 % of control under setting [3]; 108 % of control (endpoint: median survival time, dose: 9.4 mg/kg/injection, schedule: Q01DX009 (ip), vehicle: Klucel (hydroxypropylcellulose) (HPC), higher = longer survival); 102 % of control (endpoint: median survival time, dose: 10.0 mg/kg/injection, schedule: Q01DX009 (ip), vehicle: Klucel (hydroxypropylcellulose) (HPC), higher = longer survival).

Consider `C=C1C(C)C2C(Cc3ccccc3)NC(=O)C23C(OC(C)=O)C=CC(C)(O)C(=O)C(C)C/C=C/C3C1O` (centres undefined), for which the T/C (endpoint: median survival time, dose: 0.31 mg/kg/injection, schedule: Q01DX009 (ip), vehicle: Klucel (hydroxypropylcellulose) (HPC), higher = longer survival) was 121 % of control; the T/C (endpoint: median survival time, dose: 0.62 mg/kg/injection, schedule: Q01DX009 (ip), vehicle: Klucel (hydroxypropylcellulose) (HPC), higher = longer survival) is 124 % of control; the T/C under setting [1] was 110 % of control; the T/C under setting [2] is 118 % of control; the T/C under setting [3] is 109 % of control.

`ClCC[N-]CC[N-]CCCl.ClCC[N-]CC[N-]CCCl.[O-][Cl+3]([O-])([O-])O.[Zn+2]`: the T/C by setting is: (endpoint: median survival time, dose: 5.0 mg/kg/injection, schedule: Q01DX009 (ip), vehicle: saline with Tween-80, higher = longer survival) 101 % of control; (endpoint: median survival time, dose: 10.0 mg/kg/injection, schedule: Q01DX009 (ip), vehicle: saline with Tween-80, higher = longer survival) 101 % of control; (endpoint: median survival time, dose: 20.0 mg/kg/injection, schedule: Q01DX009 (ip), vehicle: saline with Tween-80, higher = longer survival) 105 % of control; (endpoint: median survival time, dose: 40.0 mg/kg/injection, schedule: Q01DX009 (ip), vehicle: saline with Tween-80, higher = longer survival) 99 % of control.

Regarding `Nc1nc(N)c(N=O)c(Nc2ccc(Br)cc2)n1`, the T/C (endpoint: mean tumor weight, dose: 10.0 mg/kg/injection, schedule: Q01DX011 (ip), vehicle: other, higher = larger tumour) was 76 % of control; the T/C (endpoint: mean tumor weight, dose: 20.0 mg/kg/injection, schedule: Q01DX011 (ip), vehicle: other, higher = larger tumour) is 114 % of control; the T/C (endpoint: mean tumor weight, dose: 40.0 mg/kg/injection, schedule: Q01DX011 (ip), vehicle: other, higher = larger tumour) is 70 % of control; the T/C (endpoint: mean tumor weight, dose: 80.0 mg/kg/injection, schedule: Q01DX011 (ip), vehicle: other, higher = larger tumour) is 44 % of control and 45 % of control; the T/C (endpoint: mean tumor weight, dose: 160.0 mg/kg/injection, schedule: Q01DX011 (ip), vehicle: other, higher = larger tumour) is 47 % of control; the T/C (endpoint: mean tumor weight, dose: 320.0 mg/kg/injection, schedule: Q01DX011 (ip), vehicle: other, higher = larger tumour) is 62 % of control.

For `Cc1ncc([N+](=O)[O-])n1CCO`, the T/C is, setting by setting: (endpoint: median survival time, dose: 37.5 mg/kg/injection, schedule: Q01DX009 (ip), vehicle: Klucel (hydroxypropylcellulose) (HPC), higher = longer survival) 98 % of control; (endpoint: median survival time, dose: 37.5 mg/kg/injection, schedule: Q04DX003 (ip), vehicle: Klucel (hydroxypropylcellulose) (HPC), higher = longer survival) 92 % of control; (endpoint: median survival time, dose: 75.0 mg/kg/injection, schedule: Q01DX009 (ip), vehicle: Klucel (hydroxypropylcellulose) (HPC), higher = longer survival) 106 % of control; (endpoint: median survival time, dose: 75.0 mg/kg/injection, schedule: Q04DX003 (ip), vehicle: Klucel (hydroxypropylcellulose) (HPC), higher = longer survival) 97 % of control; (endpoint: median survival time, dose: 150.0 mg/kg/injection, schedule: Q01DX009 (ip), vehicle: Klucel (hydroxypropylcellulose) (HPC), higher = longer survival) 96 % of control; (endpoint: median survival time, dose: 150.0 mg/kg/injection, schedule: Q04DX003 (ip), vehicle: Klucel (hydroxypropylcellulose) (HPC), higher = longer survival) 96 % of control. In addition, the T/C reads like this: (endpoint: median survival time, dose: 300.0 mg/kg/injection, schedule: Q01DX009 (ip), vehicle: Klucel (hydroxypropylcellulose) (HPC), higher = longer survival) 97 % of control; (endpoint: median survival time, dose: 300.0 mg/kg/injection, schedule: Q04DX003 (ip), vehicle: Klucel (hydroxypropylcellulose) (HPC), higher = longer survival) 100 % of control; (endpoint: median survival time, dose: 600.0 mg/kg/injection, schedule: Q01DX009 (ip), vehicle: Klucel (hydroxypropylcellulose) (HPC), higher = longer survival) 105 % of control; (endpoint: median survival time, dose: 600.0 mg/kg/injection, schedule: Q04DX003 (ip), vehicle: Klucel (hydroxypropylcellulose) (HPC), higher = longer survival) 91 % of control.

With `Cc1c(C)c2c(c(C)c1O)CCC(C)(CCCC(C)CCCC(C)CCCC(C)C)O2` (centres undefined), the T/C is, setting by setting: (endpoint: median survival time, dose: 12.5 mg/kg/injection, schedule: Q02DX009 (ip), vehicle: olive oil, sesame oil, peanut oil, higher = longer survival) 116 % of control; (endpoint: median survival time, dose: 25.0 mg/kg/injection, schedule: Q02DX009 (ip), vehicle: olive oil, sesame oil, peanut oil, higher = longer survival) 100 % of control; (endpoint: median survival time, dose: 50.0 mg/kg/injection, schedule: Q02DX009 (ip), vehicle: olive oil, sesame oil, peanut oil, higher = longer survival) 108 % of control; (endpoint: median survival time, dose: 100.0 mg/kg/injection, schedule: Q02DX009 (ip), vehicle: olive oil, sesame oil, peanut oil, higher = longer survival) 104 % of control; (endpoint: median survival time, dose: 200.0 mg/kg/injection, schedule: Q02DX009 (ip), vehicle: olive oil, sesame oil, peanut oil, higher = longer survival) 122 % of control; (endpoint: median survival time, dose: 400.0 mg/kg/injection, schedule: Q02DX009 (ip), vehicle: olive oil, sesame oil, peanut oil, higher = longer survival) 118 % of control.

As for `CCOC(=O)CC(NC(=O)CP(=O)(OCC)OCC)C(=O)OCC` (centres undefined), the T/C was 113 % of control (endpoint: median survival time, dose: 50.0 mg/kg/injection, schedule: Q01DX004 (ip), vehicle: saline, higher = longer survival); 116 % of control (endpoint: median survival time, dose: 100.0 mg/kg/injection, schedule: Q01DX004 (ip), vehicle: saline, higher = longer survival); 124 % of control (endpoint: median survival time, dose: 200.0 mg/kg/injection, schedule: Q01DX004 (ip), vehicle: saline, higher = longer survival); 116 % of control (endpoint: median survival time, dose: 400.0 mg/kg/injection, schedule: Q01DX004 (ip), vehicle: saline, higher = longer survival); 116 % of control (endpoint: median survival time, dose: 800.0 mg/kg/injection, schedule: Q01DX004 (ip), vehicle: saline, higher = longer survival); 120 % of control (endpoint: median survival time, dose: 1600.0 mg/kg/injection, schedule: Q01DX004 (ip), vehicle: saline, higher = longer survival).

`NC(Cc1c[nH]c2ccc(N(CCCl)CCCl)cc12)C(=O)O` (centres undefined): the T/C is 90 % of control (endpoint: mean tumor weight, dose: 0.13 mg/kg/injection, schedule: Q01DX011 (ip), vehicle: saline, higher = larger tumour); 90 % of control (endpoint: mean tumor weight, dose: 0.5 mg/kg/injection, schedule: Q01DX011 (ip), vehicle: saline, higher = larger tumour); 98 % of control (endpoint: mean tumor weight, dose: 1.0 mg/kg/injection, schedule: Q01DX011 (ip), vehicle: saline, higher = larger tumour); 102 % of control (endpoint: mean tumor weight, dose: 2.0 mg/kg/injection, schedule: Q01DX011 (ip), vehicle: saline, higher = larger tumour).
